Assay [1] deals with CLA-1 overexpressing HeLa cells. Nature of the assay: Bodipy-LPS uptake in HeLa cells in the presence of competitors. The class given is cell-based, human. The following applies: for effect on Bodipy-LPS uptake (surface binding and internalization): 100-fold excess of peptide, HeLa cells. The method, then: HeLa cells cultured on collagen-coated glass micro-slides are incubated with 5 μg/ml of Alexa 568 HDL, 1-0.5 μg/ml of Alexa 568 apoA-I, 1-0.5 μg/ml of Alexa 568 apoA-II or 0.5 μg/ml Bodipy-LPS for 1-2 hour in a CO2 incubator in DMEM containing 20 mg/ml BSA. […] Imaging is performed in PBS containing 0.4 mg/ml of Trypan Blue as the quenching agent. […] For co-localization, Bodipy-LPS and Alexa-568-apoA-I are used at the same concentration of 0.5 μg/ml. A Nikon video-imaging system, consisting of a phase contrast inverted microscope equipped with set of objectives and filters for immunofluorescence and connected to a digital camera and image processor, is used for recording Alexa-568-HDL and Bodipy-LPS uptake. For co-localization experiments, fluorescence is viewed with a Zeiss 510 laser scanning confocal microscope, using a krypton-argon-Omnichrome laser with excitation wavelengths of 488 and 568 nm for Bodipy-LPS and Alexa-568, respectively.
(§1) HeLa cells cultured on glass micro-slides are incubated with 5 μg/ml of Alexa568 HDL, 1-0.5 μg/ml of Alexa 568 apoA-I, 1-0.5 μg/ml of Alexa 568 L-37PA or 0.5 μg/ml Bodipy-LPS for 1-2 h in a CO2 incubator in DMEM containing 1 mg/ml BSA. […] For co-localization, Bodipy-LPS and Alexa 568-HDL or Bodipy-LPS and Alexa 568-L-37PA were used at the same concentrations of 0.5 μg/ml. Fluorescence was viewed with a Zeiss 510 laser scanning confocal microscope, using a krypton-argon-Omnichrome laser with excitation wavelengths of 488 and 568 nm for Bodipy-LPS and Alexa-568 labels, respectively.
Competition Experiments. The cells are incubated in 1 μg/ml Bodipy-LPS in the presence increasing concentrations of studied peptides. After 2-h incubation cells are washed with ice-cold PBS and lysed in 0.1% sodium dodecyl sulfate (SDS). The lysate fluorescence is measured by HTS7000 Bioassay reader (Perkin Elmer) using 488 nm for excitation and 533 nm for emission monitoring.

In assay [2] the test system is THP-1 cells. Kind of assay: LPS-stimulated cytokine production in THP-1 cells (ELISA). The class given is cell-based, human. The following applies: 10 ng/ml LPS, 24 h. The method, then:
(§2) THP-1 and CLA-1 overexpressing HeLa cells. Human monocyte-macrophages, THP-1 (ATCC [American Type Culture Collection] TIB 71), are grown in 48-well plates in RPMI 1640 medium supplemented with 10% fetal calf serum (FCS), penicillin (100 U/ml), and streptomycin (100 μg/ml). All experiments involving LPS-induced interleukin production utilize the same media except that 1% FCS was used. Hela cells were cultured as previously reported (Vishnyakova, T. G. et al. (2003) “BINDING AND INTERNALIZATION OF LIPOPOLY[…] CLA-1, A HUMAN ORTHOLOGUE OF RODENT […] RECEPTOR B1,” J. Biol. Chem 278:22771-22780).
Assays for cytokines and lactate dehydrogenase (LD). […]
(In general: In an ELISA, binding on a coated surface is turned into a signal by an enzyme label.)

Assay [3] has as its system THP-1 cells. Kind of assay: LTA, Gro-EL and HSP60 stimulated IL-8/IL-6 production in THP-1 cells. The class given is cell-based, human. The note with it: 1 μg/ml LTA or Gro-EL, 10-200 fold excess of peptide. The method, then: as §2
Assays for cytokines and lactate dehydrogenase (LD).

Assay [4] is described as follows: Limulus amebocyte lysate (LAL) assay for LPS incubated with peptides. The note with it: 10 ng/ml LPS, 10 μg/ml peptide, 37° C., 24 h; for effect on LAL activity of LPS in the absence of bivalent cations: PBS; for effect on LAL activity of LPS in media containing bivalent cations: RPMI-1640 1% FCS or DPBS. An excerpt: Limulus Amebocyte Lysate (LAL) Assay for LPS.
Limulus amebocyte lysate (LAL) assay for LPS.

The target in assay [5] is T1, CLA-1 (Homo sapiens, UniProt Q8WTV0).
T1 construct: using the expression plasmid pTRE2 (Clontech, Pal Alto, Calif.), encoding a CLA-1 protein (pTRE2-CLA-1); expressed in transfected cells; host or cells: HeLa (Tet-off) cells (Clontech), stably co-transfected with pTRE2-CLA-1 and pTK-Hyg and selected with hygromycin
T1 sequence (Q8WTV0 1-509 isoform Q8WTV0-2): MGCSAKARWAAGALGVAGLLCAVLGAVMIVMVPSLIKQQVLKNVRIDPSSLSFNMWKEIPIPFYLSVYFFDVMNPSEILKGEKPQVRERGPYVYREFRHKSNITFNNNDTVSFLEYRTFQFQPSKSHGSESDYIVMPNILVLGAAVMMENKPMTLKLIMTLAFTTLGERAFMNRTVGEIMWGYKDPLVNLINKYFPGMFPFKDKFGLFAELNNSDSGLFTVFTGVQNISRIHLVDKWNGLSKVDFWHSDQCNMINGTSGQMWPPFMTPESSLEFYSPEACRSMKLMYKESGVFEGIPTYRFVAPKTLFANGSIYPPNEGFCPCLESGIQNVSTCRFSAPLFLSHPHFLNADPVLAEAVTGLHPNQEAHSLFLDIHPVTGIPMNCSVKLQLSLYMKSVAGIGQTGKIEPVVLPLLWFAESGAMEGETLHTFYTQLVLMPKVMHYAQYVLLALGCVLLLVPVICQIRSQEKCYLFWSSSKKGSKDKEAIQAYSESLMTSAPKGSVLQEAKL
Kind of assay: Confocal uptake of Alexa/Bodipy labelled ligands in CLA-1 expressing versus mock transfected HeLa cells. In kind it is cell-based. The note with it: for uptake in CLA-1 transfected HeLa cells compared with mock-transfected control: labelled ligand, confocal microscopy. The method, then:
Preparation of BODIPY-LPS and Alexa-568 HDL, Lipid-free ApoA-I, L-37PA, L2D-37PA and 18A. HDL, apoA-I, L-37PA, L2D-37PA and 18A are conjugated with Alexa-568, SE (Molecular Probes, protein labeling kit) following the kit instructions. The Alexa ligands are analyzed by 10-20% Tricine-SDS peptide gel electrophoresis. Gels are scanned using Variable Mode Imager, Typhoon 9200, Molecular Dynamics. Alexa-labeled preparations of HDL, apolipoproteins and the peptides are found in appropriate positions with molecular masses of 28, 5 and 2.5 kDa for apoA-I, L-37PA and 18PA, respectively.
as §1

Assay [6] has as its target T1, CLA-1. Nature of the assay: Competition for Alexa 488-SAA uptake in CLA-1 overexpressing and mock transfected HeLa cells (FACS). The note with it: mock transfected and CLA-1 overexpressing HeLa cells. In kind it is binding. The method, then:
Competition experiments. Cells are cultured for 24 hr in serum free DMEM before experiments. […] For KKB-1 anti-CLA-1 blocking experiments, cells are pre-incubated with KKB-1 rabbit anti-serum (non-immune rabbit serum as a negative control) at a dilution of 1:10 followed by ligand addition to a final concentration of 5 μg/ml and a 1-hour incubation. Cell fluorescence was analyzed by FACS analyses.

Entries after “also recorded” stand apart in the source; their conditions may differ. Where no end group is shown, it is not given here.

Regarding DWLKAFYDKVAEKLKEAF [Peptide 18A], in assay [1], the “effect on Bodipy-LPS uptake (surface binding and internalization)” value is reported as “did not affect LPS-uptake”. Moreover, in the assay on THP-1 cells [2], the “effect on LPS-stimulated cytokine (IL-8, IL-6, TNF-α) production” value (shortened to “effect on LPS-stimulated cytokine”) is “did not affect LPS-uptake and LPS-stimulated cytokine production; also recorded: Neither L2D-37PA nor 18A, a single helix containing peptide, are effective inhibitors; also recorded: without effect”. In addition, the “effect on LTA and Gro-EL stimulated IL-8 and IL-6 production” value with THP-1 cells [3] is “low blocking efficiency”. In assay [4], the “effect on LAL activity of LPS in the absence of bivalent cations” value (“effect on LAL activity … of bivalent cations” for short) is “similarly neutralized LPS activity” and the “effect on LAL activity of LPS in media containing bivalent cations” value (“effect … in media containing bivalent cations” for short) is given as “had no effect on the LAL activity of LPS in culture media”. Besides, in the assay with CLA-1 [5], the SR-BI/CLA-1 ligand property result is “less potent SR-BI/CLA-1 ligand” and the “uptake in CLA-1 transfected HeLa cells compared with mock-transfected control” value (“uptake … compared with mock-transfected control” below) is reported as “not increased”.
As to “DWLKAFYDKVAEKLKEAF-P-DWLKAFYDKVAEKLKEAF [L1D-37PA] (DWLKAFYDKVAEKLKEAFPDWLKAFYDKVAEKLKEAF; not fully specified (residue 1)) [Peptide L1D-37PA]”, in the assay with THP-1 cells [2], the “effect on LPS-stimulated cytokine” value was “not effective blockers”. For the same substance, the “effect on LTA and Gro-EL stimulated IL-8 and IL-6 production” value in the assay with THP-1 cells [3] is recorded as “not effective blockers; also recorded: no effect was observed”. Also, the “competition with Alexa 488-SAA for CLA-1” value with CLA-1 [6] is reported as “No competition is demonstrated”.
As for “DWLKAFYDKVAEKLKEAF-P-DWLKAFYDKVAEKLKEAF [L2D-37PA] (DWLKAFYDKVAEKLKEAFPDWLKAFYDKVAEKLKEAF; also: two D-amino acids per helix, places not given here) [Peptide L2D-37PA]”, the “effect on Bodipy-LPS uptake (surface binding and internalization)” value in assay [1] is reported as “did not affect LPS-uptake; also recorded: does not decrease LPS uptake; also recorded: block neither LPS uptake”. Besides, in the assay with THP-1 cells [2], the “effect on LPS-stimulated cytokine” value is “did not affect LPS-uptake and LPS-stimulated cytokine production; also recorded: Neither L2D-37PA nor 18A, a single helix containing peptide, are effective inhibitors; also recorded: not effective blockers; also recorded: without effect; also recorded: block neither LPS uptake nor LPS/LTA/Gro-EL induced interleukin (IL-6 and IL-8) secretion”. Further, the “effect on LTA and Gro-EL stimulated IL-8 and IL-6 production” value with THP-1 cells [3] was “not effective blockers; also recorded: block neither LPS uptake nor LPS/LTA/Gro-EL induced interleukin (IL-6 and IL-8) secretion; also recorded: no effect was observed”. In addition, in assay [4], the “effect on LAL activity … of bivalent cations” value is recorded as “also decreases LPS activity in the absence of bivalent cations” and the “effect … in media containing bivalent cations” value is given as “No substantial LPS neutralization; also recorded: had no effect in the presence of bivalent cations”. For the same substance, in assay [4] (listed as L2D-37P A), the “effect on LAL activity … of bivalent cations” value is given as “similarly neutralized LPS activity” and the “effect … in media containing bivalent cations” value is “had no effect on the LAL activity of LPS in culture media”. Moreover, in the assay with CLA-1 [5], the SR-BI/CLA-1 ligand property entry is recorded as “do not bind to SR-BI/CLA-1” and the “uptake … compared with mock-transfected control” value is recorded as “not increased”. Moreover, in the assay with CLA-1 [6], the “competition with Alexa 488-SAA for CLA-1” value is listed as “No competition is demonstrated”.
With “DWLKAFYDKVAEKLKEAF-P-DWLKAFYDKVAEKLKEAF [L3D-37PA] (DWLKAFYDKVAEKLKEAFPDWLKAFYDKVAEKLKEAF; also: triple D-amino acid substitutions, places not given here) [Peptide L3D-37PA]”, the “effect on LPS-stimulated cytokine” value in the assay on THP-1 cells [2] was “not effective blockers”. In the assay with THP-1 cells [3], the “effect on LTA and Gro-EL stimulated IL-8 and IL-6 production” value was “not effective blockers; also recorded: no effect was observed”. The “competition with Alexa 488-SAA for CLA-1” value with CLA-1 [6] was “No competition is demonstrated”.
For “apoA-I: lipid poor apolipoprotein A-I purified from human plasma”, the “effect on surface bound Bodipy-LPS” value in assay [1] (100× excess, CLA-1 overexpressing cells) is “eliminated surface bound Bodipy-LPS”. The “effect on Bodipy-LPS uptake” value in assay [1] (200× excess of unlabeled lipid poor apoA-I, CLA-1 overexpressing HeLa cells) is recorded as “dramatically reduces Bodipy-LPS uptake”. Further, in the assay with CLA-1 [5], the “uptake … compared with mock-transfected control” value was “Increased surface binding and internalization”. Further, the figures for the “competition with Alexa 488-SAA for CLA-1” value with CLA-1 [6] and with CLA-1 [6] (listed as ApoA-I) were “compete with Alexa 488-SAA for CLA-1” and “competed for CLA-1 binding with Alexa 488-SAA”, respectively.

The values are drawn from patent US20090011974A1, “Scavenger Receptor B1 (Cla-1) Targeting for the Treatment of Infection, Sepsis and Inflammation” (priority 2002, published 2009).
